# Like-named read-outs stand apart in the source and are kept apart here.
# Legend:
# [1] = target: T1, human serotonin 5-HT7 receptor subtype (Homo sapiens, UniProt P34969); assay: Binding affinity for 5-HT7 receptor ([3H]-5-CT displacement, membrane fraction of expressing cells)
# T1 construct: expressed in transfected cells
# Experimental: Binding Affinity for 5-HT7 Receptor
# Cultured cells capable of expressing human serotonin 5-HT7 receptor subtype were collected in an assay buffer (50 mM Tris-HCl, pH 7.4, containing […], 0.2 mM EDTA, 0.001% pargyline and 0.1% ascorbic acid) and homogenized with a Potter type homogenizer. Then the membrane fraction was subjected to 20 minutes of centrifugation at 39,000 g and at 4° C. The thus obtained pellet was re-suspended in 1 ml (per cells per one culture dish of 10 cm in diameter) of the assay buffer and homogenized again. This test was carried out on 1 nM in final concentration of [^3H]-5-CT (carboxamide triptamine) and 1 to 1, 000 nM of the compounds of Examples 1 to 90 represented by the general formula (I). A 100 μl of the membrane fraction was added to the reaction tube, final assay volume was adjusted to 500 μl, and the reaction was carried out by incubating the medium at 37° C. for 15 minutes. The incubation was terminated by quickly filtering the reaction system on a GF/B filter which was subsequently washed with 6 ml of cold 50 mM Tris-HCl (pH 7.4). Radioactivity was measured using Packard liquid scintillation counter. Non-specific binding was determined by 10 μM metergoline, and the specific binding was calculated based on the difference. IC50 value of each compound was determined by non-linear least square regression analysis, and dissociation constant Ki was calculated from the value.
# 5-HT2 receptor = target: T2, 5-HT2 receptor (Rattus norvegicus, UniProt P14842); assay: Binding affinity for 5-HT2 receptor ([3H]ketanserin displacement, rat cerebral cortex P2 fraction); settings: 1 nM [3H]ketanserin, Ki calculated from IC50
# T2 construct: the thus obtained precipitate was used as P2 fraction; from tissue; host or cells: rat cerebral cortex, P2 membrane fraction
# Experimental: Binding Affinity for 5-HT2 receptor
# Rat cerebral cortex was homogenized in 10 volumes of 0.32 M sucrose solution and centrifuged for 10 minutes at 900×g, and the resulting supernatant fluid was again centrifuged for 20 minutes at 11,500×g. The thus obtained precipitate was re-suspended in […] Tris-HCl (pH 7.4) buffer and centrifuged for 20 minutes at 39,900×g, and the thus obtained precipitate was used as P2 fraction. The P2 fraction was incubated at 37° C. for 15 minutes in 50 mM Tris-HCl (pH 7.4) buffer containing 1 nM of [^3H] ketanserin and each of the compounds of the present invention and then filtered after the reaction using Whatman GF/B glass filter. The ^3H radioactivity on the filter was measured using a liquid scintillation counter. Non-specific binding was determined in the presence of 10 μM ketanserin, and the specific binding was calculated based on the difference. IC50 value of each compound was determined by non-linear least square regression analysis, and dissociation constant Ki was calculated from the value. The dissociation constant of 5-HT2 obtained by this test, dissociation constant of 5-HT7 obtained in Test Example 1 and their ratio are shown in the following table. As is evident from the results shown in the following table, compounds of the present invention show their affinity for 5-HT2 receptor too, but they bind more selectively to 5-HT7 receptor.
# [2] = human 5-HT7 expressing cultured cells, 1 nM [3H]-5-CT, Ki calculated from IC50, read-out: Ki (nM) of 5-HT7
# T1 sequence (P34969 whole entry): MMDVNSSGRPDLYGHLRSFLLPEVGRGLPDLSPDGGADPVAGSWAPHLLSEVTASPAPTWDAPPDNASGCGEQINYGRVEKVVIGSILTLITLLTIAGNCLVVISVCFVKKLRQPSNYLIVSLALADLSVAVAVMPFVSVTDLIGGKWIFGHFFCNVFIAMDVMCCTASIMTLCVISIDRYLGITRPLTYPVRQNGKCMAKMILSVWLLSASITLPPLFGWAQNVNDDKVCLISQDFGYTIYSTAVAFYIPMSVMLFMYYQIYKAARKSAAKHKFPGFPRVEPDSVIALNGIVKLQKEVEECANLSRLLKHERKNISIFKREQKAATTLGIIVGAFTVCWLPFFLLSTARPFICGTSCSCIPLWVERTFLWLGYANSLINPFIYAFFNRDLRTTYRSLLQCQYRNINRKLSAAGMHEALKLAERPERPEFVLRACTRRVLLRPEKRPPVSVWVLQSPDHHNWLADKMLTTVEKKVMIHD
# T2 sequence (P14842 whole entry): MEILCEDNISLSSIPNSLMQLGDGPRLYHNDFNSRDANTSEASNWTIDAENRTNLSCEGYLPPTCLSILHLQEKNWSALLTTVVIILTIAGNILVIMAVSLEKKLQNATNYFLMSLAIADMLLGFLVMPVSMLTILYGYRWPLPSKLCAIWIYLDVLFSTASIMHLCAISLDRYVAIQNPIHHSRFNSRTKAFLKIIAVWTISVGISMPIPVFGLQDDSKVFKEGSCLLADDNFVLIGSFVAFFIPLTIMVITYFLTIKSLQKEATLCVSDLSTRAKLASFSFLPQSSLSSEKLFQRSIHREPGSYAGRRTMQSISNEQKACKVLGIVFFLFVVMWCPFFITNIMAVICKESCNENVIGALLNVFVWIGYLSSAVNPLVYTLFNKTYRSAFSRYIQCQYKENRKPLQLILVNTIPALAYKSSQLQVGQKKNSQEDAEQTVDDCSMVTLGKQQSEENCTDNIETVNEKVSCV
Structure (SMILES),"Ki [1, 2] [nM]",Ki (5-HT2 receptor) [nM],Ki [1] [nM],5-HT2/5-HT7 ([1]; ratio of dissociation constants Ki 5-HT2 / Ki 5-HT7)
"COc1ccccc1N1CCN(CCCCC23CCCc4cccc(c42)NC3=O)CC1 (stereo not shown) [Compound 5, 2a-[4-{4-(2-Methoxyphenyl)piperazinyl}butyl]-2a,3,4,5-tetrahydrobenz[cd]indole-2(1H)-one]",8.9,61,,
"COC1(c2ccccc2)CCN(CCCCC23CCCc4cccc(c42)NC3=O)CC1 (stereo not shown) [Compound 56, 2a-[4-(4-Methoxy-4-phenyl-piperidyl)butyl]-2a,3,4,5-tetrahydrobenz[cd]indole-2(1H)-one]",,414,27,
"O=C1Nc2cccc3c2C1(CCCCN1CCN(c2ccccn2)CC1)CCC3 (stereo not shown) [Compound 87, 2a-[4-{4-(^2-Pyridyl)piperazinyl}butyl]-2a,3,4,5-tetrahydrobenz[cd]indole-2(1H)-one]",11,120,,11.0
